Test results: patent US20020164721A1, “Design of a polyepitopic construct for the induction of HLA-A2.1 restricted HIV 1 specific CTL responses using HHD mice” (priority 1999, published 2002)
Values joined by “and” are separate entries in the source; they are usually repeats but may differ in a detail not shown here. Equal entries are not always repeated. “Also recorded” adds a separate entry of the source. Where two headings read alike, the source gives them in different places.

What was measured:
[1] = test system: peptide-pulsed HHD-transfected RMAS cells; type: in vivo, HHD mice; settings: for classification as immunogen: by number of responder mice and strength of responses, peptide in IFA; for Responder/tested mice: 100 μg peptide s.c. in IFA
[2] = test system: peptide-pulsed HHD-transfected RMAS cells; type: in vivo, HHD mice; settings: with helper peptide; for Responder/tested mice: 50 μg CD8 + 140 μg HBV core T13L in IFA
[3] = test system: HHD-transfected RMA-S cells loaded with variant peptides; experiment: Cross-recognition of the main HIV 1 natural variants by induced CTL; type: in vivo, HHD mice; settings: CTL induced by the immunizing peptide; FIG. 4
Experimental: Therefore, we tested, in the four latter cases, whether the elicited CTL responses by the selected wild-type or tyrosine substituted immunizing peptides could cross-recognize natural variants of a significant representation among HIV 1 isolates.
Cytolytic activity was evaluated against peptide-loaded HHD-transfected RMA-S cells using Inf.m.G9L peptide-loaded cells as a negative control.

HLA-A2.1 molecules [4] = biological target: T1, HLA-A2.1 molecules (Homo sapiens, UniProt P04439, D140Y/D185E/D98H/E176V/E277Q/G131W/G231S/I119V/I121R/I166T/I218V/L300P/L318F/N151K/N90K/P208A/P217A/Q86G/Q94H/R138H/R169H/T345S); type: binding; settings: wild-type HIV 1 peptides; T2 cells, 37° C., brefeldine A
T1 construct: Using TAP-deficient, HLA-A2.1^+ T2 cells, we evaluated these parameters in an immunofluorescence assay; endogenous in cells; host or cells: T2 cells (TAP-deficient, HLA-A2.1+)

HLA-A2.1 molecules [5] = biological target: T1, HLA-A2.1 molecules; type: binding
[6] = test system: HHD-transfected RMA-S cells loaded with relevant peptide; experiment: CTL response of HHD mice injected s.c. with tumor epitopic peptide in IFA (51Cr-release assay); type: in vivo; settings: for hierarchy of CTL inducers: peptide alone in IFA, by number of responding mice and level of specific lysis; for R/T (responder versus tested mice): peptide s.c. in IFA, no helper, responder = at least 10% specific lysis
[7] = test system: HHD-transfected RMA-S cells loaded with relevant peptide; experiment: CTL response of A2A2Kb mice injected s.c. with tumor epitopic peptide in IFA (51Cr-release assay); type: in vivo; settings: responder = at least 10% specific lysis
[8] = test system: HHD-transfected RMA-S target cells loaded with relevant peptide; experiment: CTL response of HHD mice co-immunized in IFA with tumor peptide and HBVc.128 helper peptide; type: in vivo; settings: for R/T (responder versus tested mice): 50 μg CD8 peptide + 140 μg HBVc.128 helper in IFA
[9] = test system: HHD-transfected RMAS cells loaded with relevant peptide; experiment: CTL response of HHD mice immunized with peptide-loaded dendritic cells; type: in vivo; settings: for lysis in % (highest specific lysis): individual mice 1-6, usually 60/1 E/T; for lysis in % after a second in vitro restimulation: second restimulation with 10% TCGF, individual mice 1-6
[10] = test system: HHD-transfected RMAS cells loaded with relevant peptide; experiment: CTL response of HHD mice immunized with recombinant Ty-VLP; type: in vivo; settings: for lysis in % (highest specific lysis): recombinant Ty-VLP carrying the epitope, individual mice 1-6
[11] = test system: HHD-transfected RMAS cells loaded with relevant peptide; experiment: CTL response of HHD mice immunized with monoepitopic pCMV-B10 DNA; type: in vivo; settings: for lysis in % (highest specific lysis): pCMV-B10 DNA encoding the epitope, individual mice 1-6
[12] = test system: HHD-transfected RMAS cells loaded with relevant peptide; experiment: CTL response of HHD mice immunized with lipopeptides; type: in vivo; settings: lipopeptide of the epitope; individual mice 1-6
[13] = test system: peptide-loaded HHD-transfected RMA-S cells and HHD-transfected HeLa cells expressing the polyepitope; experiment: Melanoma polyepitopic pCMV-B10 DNA immunization of HHD mice, CTL assay; type: in vivo; settings: pCMV-B10 DNA with 10 melanoma epitopes, FIG. 1C and D
[14] = wild-type HIV 1 peptides, reference I9V, T2 cells

For “ALVEICTEM [A9M, HIV 1 POL (188-196) CD8 epitopic peptide]”, which classification as immunogen [1] is on record?
Its classification as immunogen is “intermediate”.

And the Responder/tested mice ([1]; without helper peptide)?
The Responder/tested mice was 3/6.

What about the Responder/tested mice [2] of the same sequence?
Its Responder/tested mice is 1/6.

And the “Maximal specific lysis (%)” value ([2]; each responder mouse)?
The value was 31%.

And the “cross-recognition of natural HIV 1 variants (in words)” value [3]?
Its value is “cross-lysed significantly all main natural variants”.

Which results are given for EMMTACQGV [E9V]?
DC (half-life of stabilized peptide-HLA-A2.1 complexes, DC 50) (HLA-A2.1 molecules [4]): < 2 h; classification as immunogen [1]: inefficient; Responder/tested mice ([1]; without helper peptide): 0/6; Responder/tested mice [2]: 0/6

What does the source list for “KLTPLCVSL [K9L, HIV 1 ENV gp120 (120-128) CD8 epitopic peptide]”?
RA (relative affinity) (HLA-A2.1 molecules [5]; [14]): 1.35; DC (half-life of stabilized peptide-HLA-A2.1 complexes, DC 50) (HLA-A2.1 molecules [4]): > 6 h; classification as immunogen [1]: intermediate; Responder/tested mice ([1]; without helper peptide): 3/6; Responder/tested mice [2]: 4/6; cross-recognition of natural HIV 1 variants (in words) [3]: lack of cross-recognition

What does the source list for LLDTGADDTV [L10V]?
RA (relative affinity) (HLA-A2.1 molecules [5]; [14]): 10; DC (half-life of stabilized peptide-HLA-A2.1 complexes, DC 50) (HLA-A2.1 molecules [4]): < 2 h; classification as immunogen [1]: intermediate; Responder/tested mice ([1]; without helper peptide): 1/6; Maximum specific lysis (%) ([1]; without helper peptide, each responder mouse): 48%; Responder/tested mice [2]: 0/6

What does the source list for VLDVGDAYFSV [V11V]?
RA (relative affinity) (HLA-A2.1 molecules [5]; [14]): 4.5; DC (half-life of stabilized peptide-HLA-A2.1 complexes, DC 50) (HLA-A2.1 molecules [4]): 2 h; classification as immunogen [1]: intermediate; Responder/tested mice ([1]; without helper peptide): 3/6; Responder/tested mice [2]: 2/6

What does the source list for “VLPDVFIRC [NA17-A.nt38, NA17-A nt38-64 epitopic peptide]”?
hierarchy of CTL inducers [6]: intermediate; R/T (responder versus tested mice) [6]: 4/7; R/T (responder versus tested mice) [7]: 0/6; RA (relative affinity) (HLA-A2.1 molecules [5]): 1.52; R/T (responder versus tested mice) [8]: 5/6; CTL response with helper peptide (in words) ([8]; co-injected with HBVc.128 helper, compared with peptide alone): stronger responses in a larger proportion of mice; lysis in % (highest specific lysis) [9]: 0% (2×) and 3% (2×) and 5% and 6%; lysis in % after a second in vitro restimulation [9]: (6) %; also recorded: (5) %; also recorded: (24) %; also recorded: (9) %; also recorded: (7) %; also recorded: (2) %; lysis in % (highest specific lysis) [10]: 55% and 39% and 50% and 60% and 59% and 61%; CTL responses (in words) ([10]; recombinant Ty-VLP, all animals tested): strong CTL responses; lysis in % (highest specific lysis) [11]: 35% and 43% and 47% and 44% and 40% and 54%; CTL responses (in words) ([11]; recombinant pCMV-B10-DNA, all animals tested): strong CTL responses; lysis in % (highest specific lysis) [12]: 0% (2×) and 12% and 68% and 65% and 47%; CTL response against the epitope after melanoma polyepitope DNA immunization (in words) [13]: Strong responses

What does the source list for YLEPGPVTA [gp100.280]?
hierarchy of CTL inducers [6]: weak; R/T (responder versus tested mice) [6]: 3/16; R/T (responder versus tested mice) [7]: 0/6; R/T (responder versus tested mice) [8]: 2/8; lysis in % (highest specific lysis) [9]: 0%; lysis in % after a second in vitro restimulation [9]: (1) %; also recorded: (0) %; lysis in % (highest specific lysis) [10]: 8% (2×) and 3% and 1% and 4% and 18%; lysis in % (highest specific lysis) [11]: 0% (2×) and 8% and 36% and 21% and 9%; lysis in % (highest specific lysis) [12]: 0% (2×) and 8% (2×) and 40% and 21%; CTL response against the epitope after melanoma polyepitope DNA immunization (in words) [13]: did not elicit CTL responses; also recorded: No specific lysis
